Values of other authors in patent EP2681209B1, “COMPOUNDS AND METHODS FOR THE TREATMENT OF PAIN AND OTHER DISORDERS” (Aquilus Pharmaceuticals, Inc, priority 2011, dated 2012).

What was measured:
MMP-9 = MMP-9 (Homo sapiens, UniProt P14780); settings: background literature; cited from earlier work
TNF-alpha = settings: background literature; cited from earlier work

MMP-9, sequence (P14780 94-707, species assumed): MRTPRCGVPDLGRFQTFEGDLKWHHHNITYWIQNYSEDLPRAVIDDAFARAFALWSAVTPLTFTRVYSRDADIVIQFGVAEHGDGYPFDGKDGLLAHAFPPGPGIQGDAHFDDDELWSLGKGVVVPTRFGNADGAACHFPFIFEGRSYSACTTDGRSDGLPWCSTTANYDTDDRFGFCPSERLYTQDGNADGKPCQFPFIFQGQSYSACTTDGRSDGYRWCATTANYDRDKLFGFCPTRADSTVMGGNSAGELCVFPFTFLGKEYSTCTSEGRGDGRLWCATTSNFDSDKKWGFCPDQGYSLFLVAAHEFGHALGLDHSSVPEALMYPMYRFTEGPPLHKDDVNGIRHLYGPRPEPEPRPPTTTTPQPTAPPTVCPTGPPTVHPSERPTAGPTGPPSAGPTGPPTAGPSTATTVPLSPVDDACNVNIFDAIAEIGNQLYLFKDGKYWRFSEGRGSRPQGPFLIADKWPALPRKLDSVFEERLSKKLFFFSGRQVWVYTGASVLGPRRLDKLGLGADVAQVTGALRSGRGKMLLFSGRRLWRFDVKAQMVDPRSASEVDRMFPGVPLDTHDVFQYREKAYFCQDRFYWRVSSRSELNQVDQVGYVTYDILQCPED

CC(C)C[C@H](CC(=O)NO)C(=O)N[C@@H](Cc1ccc2ccccc2c1)C(=O)N[C@@H](C)C(N)=O [TAPI-0]
IC50 (MMP-9): 0.0005 µM | IC50 (TNF-alpha): ~0.1 µM
